Assay results reported in a melting point compilation (Tetko et al.; mined from patent text by program, amines drawn as free bases though some values may be those of a salt).

Row | SMILES | melting point [°C]
1 | Cc1ccc(C(=O)C2=C(O)C(=O)N(c3ncc(S(C)(=O)=O)s3)C2c2ccc(C(C)C)cc2)cc1 (centres undefined) | 269 to 271
2 | COC(=O)C(CCCN(C)CCc1ccc(OC)c(OC)c1)c1ccc(OC)c(OC)c1 (centres undefined) | 112 to 114
3 | CCOC(=O)NC(=S)CNc1ccc(C(=O)OC)c(S(=O)(=O)NC(C)(C)C)c1 | 110
4 | Nc1ccc(OCc2ccc(Cl)nc2)cc1F | 101
5 | Nc1ccccc1OCc1nc(Cl)ccc1Cl | 74 to 75
6 | Cc1ccc(S(=O)(=O)c2ccccc2[N+](=O)[O-])cc1 | 155 to 156
7 | CN(C)C=CC(=O)c1cc(Cl)ccc1Cl | 83 to 85
8 | CC(C)C(=O)c1[nH]c(C(CC2CCCC2)c2ccc(S(C)(=O)=O)cc2)nc1F (centres undefined) | 161 to 162
9 | O=S(=O)(c1ccccc1)n1ccc2cc3c(cc21)OCO3 | 142 to 145
10 | CC(=O)NC[C@H]1CN(c2ccc(N3CCC(=C(C)C#N)CC3)cc2)C(=O)O1 | 94 to 96
11 | Cc1csc(-c2ccc3nnn(Cc4ccc5ncccc5c4)c3n2)c1 | 153 to 156
12 | CC1(C)C2C(=O)OC(C(Br)(Br)Br)C21 (centres undefined) | 101 to 103
13 | O=C(O)CCCCN1CCN2c3ccccc3Cc3ccccc3C2C1 (centres undefined) | 218 to 219
14 | Cc1noc2cc3c(cc12)C1(CO3)C(=O)N(Cc2ncccc2C(F)(F)F)c2ccccc21 (centres undefined) | 221 to 222
15 | O=c1cc2c3ccccc3sn2c2ccc(Cl)cc12 | > 350
16 | CC1SC(=O)NN=C1c1ccc2c(c1)C(=Nc1ccc(N(C)C)cc1)C(=O)N2 (centres undefined) | 261
17 | COC12CC(CO)CN(C)C1Cc1cn(C(C)(C)C)c3cccc2c13 (centres undefined) | 172 to 174
18 | O=C(c1ccccc1)c1ccc(N2CCN(c3ccncc3)CC2)cc1 | 136 to 137
19 | CC(C)Cn1c(C(F)(F)F)nc2ccc(-n3c(=O)cc(C(F)(F)F)n(C)c3=O)cc21 | 156 to 159
20 | Clc1ccc2nc(Cl)nnc2c1 | 113 to 115
21 | Cc1noc2cccc(OCC3CO3)c12 (centres undefined) | 51 to 53
22 | O=C1CCC(N2C(=O)c3cccc(OCc4ccc(CN5CCC(c6ccc(F)cc6F)CC5)cc4)c3C2=O)C(=O)N1 (centres undefined) | 153 to 155

Row | SMILES | melting point [°C]
23 | CC(=O)c1ccc(S(=O)(=O)Nc2ccccn2)cc1 | 198 to 199
24 | OC(COc1ccc(Cl)cc1)(Cn1cncn1)c1ccc(Br)s1 (centres undefined) | 108 to 112
25 | O=c1[nH]c(-c2ccccn2)nc(C(F)(F)F)c1I | 186 to 187
26 | CCc1ccc(SC(=NNc2ccc(OC)cc2)C(C)=O)cc1 | 106 to 108
27 | Cc1cc(Oc2ncc(C(F)(F)F)cc2Cl)n[nH]1 | 93 to 95
28 | Cc1ccc(-n2c(=O)c3c(N4CCNCC4)cc(Cl)cc3n(Cc3ccccc3)c2=O)cc1 | 120 to 124
29 | CCCCCCCCCCOc1cc(O)cc(C(=O)OC)c1 | 92 to 94
30 | O=C(CCCCN1CCOCC1)c1ccc2c(c1)Cc1cc(C(=O)CCCCN3CCOCC3)ccc1-2 | 134 to 136
31 | CC(=O)OCC(COCn1cnc2c(=O)[nH]c(N)nc21)OC(C)=O (centres undefined) | 222 to 224
32 | CC(C)N(CCC1(c2ccccn2)CCC(=O)NC1=O)C(C)C (centres undefined) | 101 to 102
33 | CC1Cc2cc3c(cc2C(c2ccc([N+](=O)[O-])cc2)=NN1C(=O)NCCCl)OCO3 (centres undefined) | 222 to 223
34 | C[C@@H](S[C@H]1CO[C@H](c2ccccc2)OC1)[C@](O)(Cn1cncn1)c1ccc(F)cc1F | 58 to 60
35 | COC(=O)c1cc(N)c(F)c(-c2ccc(Cl)c(OC)c2F)n1 | 204 to 206
36 | O=C(O)CCSCC(=O)c1cc2sc(=O)[nH]c2cc1Cl | 195 to 197
37 | CCCC(=O)c1cc(C(=O)O)c(N)cc1C | 184 to 186
38 | Cc1cccc(C(=O)NCc2cccc3c2C(=O)N(C2CCC(=O)NC2=O)C3=O)n1 (centres undefined) | 197 to 199
39 | CC1(C)CSc2sc(S(N)(=O)=O)cc2C1O (centres undefined) | 158 to 159
40 | CCCCCCn1c(C)c(C(=O)N(CCCC)CCCC)c2c(CN3CCCCC3)c(O)c(C(=O)CC)cc21 | 124 to 125
41 | CC(C)Cc1cc2cc(OCC(=O)O)c(Cl)c(Cl)c2s1 | 164 to 165
42 | CCCCn1cc(C(=O)O)c2ccccc21 | 124 to 126
43 | COC(=O)C1CCC(=O)c2c(-c3ccc(Cl)cc3)noc2C1 (centres undefined) | 108 to 109
44 | CS(=O)(=O)Nc1cccc(Nc2nc(NCc3ccccc3CO)c3nc[nH]c3n2)c1 | 145 to 148

Row | SMILES | melting point [°C]
45 | CC1CCCCC1C(=O)Nc1ccc(-c2ncc(-c3ccc(NC(=O)C4CCCCCC4)cc3)[nH]2)cc1 (centres undefined) | 258 to 260
46 | Cn1ncnc1COc1nc2c(cc1C1CCC1)nnn2-c1ccccc1F | 120 to 122
47 | COC(=O)C1=C[C@@H](OC(C)C)[C@H](NC(C)=O)[C@@H](CCO)C1 | 118 to 119
48 | c1ccc(-c2ccc(NCc3nccc(-c4ccc(-c5ccc(N(c6ccccc6)c6ccccc6)cc5)cc4)n3)cc2)cc1 | 224 to 225
49 | COc1cc(Nc2c([N+](=O)[O-])ccc(Cl)c2C(=O)O)cc(OC)c1 | 174 to 177
50 | COC(=O)C1=C(C)NC(C)=C(C(=O)OCC(O)CO)C1c1cccc([N+](=O)[O-])c1 (centres undefined) | 49 to 53
51 | CC(=O)NC[C@H]1CN(c2ccc(C(=O)c3ccc4ccc(C)cn34)cc2)C(=O)O1 | 237 to 239
52 | Cc1nc(-c2ccccc2C(F)(F)F)c(-c2ccccc2C(F)(F)F)o1 | 100 to 102
53 | CC(=O)c1ccc(S(=O)(=O)N2CCCC(CO)C2)cc1 (centres undefined) | 104 to 106
54 | COc1ccc(C(=O)Nc2ccc(C(C)(C)C#N)c(-c3cccc(Cl)c3)c2)cc1OC | 144 to 146
55 | Cc1[nH]c(C(C)(C)C)nc1CO | 196
56 | COc1ccc(-n2cnc3ccc(-c4nnc(CCc5cccc(C(F)(F)F)c5)o4)cc32)cc1 | 159 to 160
57 | Cc1c(C(=O)O)nc2c(=O)[nH]c3cc(C(F)(F)F)ccc3n12 | > 250
58 | O=c1c(Br)cc(Cc2ccccc2)cn1Cc1ccccc1 | 89 to 90
59 | O=C(NCc1cccnc1)C1Oc2ccc(Cl)cc2Cc2cc(Cl)ccc2O1 | 225 to 226
60 | COC(=O)[C@H](Cc1ccc(OCC2CCCN(C(=O)OC(C)(C)C)C2)cc1)NC(=O)[C@@H]1CCCN1S(=O)(=O)c1ccc(C)cc1 (some centres undefined) | 82 to 84
61 | COc1ccc2c(c1)c(CN(O)C(=O)CCC(=O)O)c(C)n2C(=O)c1ccc(Cl)cc1 | 134 to 136
62 | COc1c(C)cnc(CS(=O)c2nc3c(C)c(OC)c(C)cc3[nH]2)c1C (centres undefined) | 137
63 | CCc1ccc(Nc2c(F)c(F)cc(F)c2F)c(CC(=O)N(C)C)c1 | 105 to 106
64 | O=C(c1ccc(-n2cncn2)cc1)N1CCC(NCCc2ccc(Cl)cc2)CC1 | 131 to 132
65 | CC(C)C(C#N)c1ccc(O)c(O)c1 (centres undefined) | 134 to 136
66 | COc1cccc2c1CC(COS(=O)(=O)c1ccc(C)cc1)CC2 (centres undefined) | 53 to 58

Continued, values first:

Row | melting point [°C] | SMILES
67 | 85 to 87 | CC(C)(SC(F)(F)F)C(O)C(Oc1ccc(Cl)cc1)n1cncn1 (centres undefined)
68 | 174 to 177 | CC(=O)Oc1c(C(C)C)c(-c2ccc(F)cc2)c(O)c(C(C)C)c1C(C)C
69 | 132 | COc1ccc(C2=NC[C@@H](OC(=O)Nc3ccccc3)[C@H](c3ccccc3)O2)cc1 (racemic)
70 | 147 to 148 | C[C@@H](N(C(=O)CN)C(=O)c1ccc(C(F)(F)F)cc1)[C@](O)(Cn1cncn1)c1ccc(F)cc1F (relative stereo)
71 | 248 to 250 | CCCc1n[nH]cc1-c1nsc(Nc2ccccn2)n1
72 | 112 to 113 | CC(C)(C)n1ncc(S)c(Cl)c1=O
73 | 86 to 87 | Cc1ccc(S(=O)(=O)N(C)c2ccc(Cl)cc2Cl)cc1
74 | 99.5 to 100 | CCCc1nc2c(N)nc(C)c(C)c2n1CCOCc1ccccc1
75 | 89 | C=C(C)[C@@H]1CC=C(OC(=O)C2CCC(C(=O)OC3=CC[C@@H](C(=C)C)CC3)CC2)CC1 (some centres undefined)
76 | 110 to 120 | O=C(O)c1ccc(CNC(=O)[C@@H]2Cc3ccccc3N2S(=O)(=O)c2ccc(I)cc2)cc1
77 | 289 to 291 | Cc1c(-c2ccc(F)cc2)oc2c(-c3ccc(S(C)(=O)=O)cc3)c(-c3ccc(F)cc3)nn12
78 | 201 to 202 | Cc1oc(-c2ccccc2)nc1COc1cccc(C=CC=Cc2nnn[nH]2)c1
79 | 173 to 175 | Cc1ccc(-c2ncc(NC(=O)OCc3ccccc3)c(=O)n2CC(=O)NC(Cc2ccccc2)C(=O)C(F)(F)F)cc1 (centres undefined)
80 | 97 to 98 | O=C(N[C@H]1CCN(CCc2ccc(F)cc2)C1)N(C1CCCCC1)C1CCCCC1
81 | 230 | CC(=O)N1c2ccccc2Sc2cc(O)c3ccccc3c21
82 | 90 to 93 | COC(=O)c1cc(OC)nc(C)n1
83 | 108 to 110 | O=C(CNC(=O)c1cc([N+](=O)[O-])c(F)cc1Cl)OCc1ccccc1

Row | melting point [°C] | SMILES
84 | 88 | CC(C)(O)[C@H](Cc1ccccc1)NC(=O)C(Cl)(Cl)Cl
85 | 65 to 66 | CCCCCCCCCCOc1cnc(-c2ccc(C(C)O)cc2)nc1 (single isomer, unassigned; (+))
86 | 265 to 267 | CC(=O)Nc1cccc(/C=C/C(=O)O)c1C
87 | 70 to 71 | O=C(O)/C=C/c1cnc(-c2ccc(O)c(C34CC5CC(CC(C5)C3)C4)c2)cn1
88 | 206 to 208 | O=C(O)CC1(c2cccc(F)c2)NC(=O)NC1=O (centres undefined)
89 | > 300 | Cc1cc(=O)[nH]c2cc(O)cc(O)c12
90 | 106 to 107 | CC(=O)N=c1sc(C)cn1CC(O)c1cccs1 (centres undefined)
91 | 49 | C=C(COC(=O)CCCCCCBr)COC(=O)NCCCCCCCCCCCCCCCCCC
92 | 92 to 93 | CCOC(=O)C=Cc1ccc(OCc2csc(-c3ccccc3)n2)c(OC)c1
93 | 130 to 131 | COc1ccc(CCCN2C=CC=C3C2=Nc2cc(C)ccc2S(=O)(=O)N3C)cc1
94 | 114 to 116 | O=C(O)C(Oc1ccccc1)c1ccc(Oc2ccc(Cl)cc2)cc1 (centres undefined)
95 | 42 to 44 | CCCCCCc1cc(SC)ccc1O
96 | 218 to 220 | CNc1nc(-c2cccc(NC(=O)Nc3ccccc3)c2)c2cc(OC)c(OC)cc2n1
97 | 104 | c1ccn2c(SCCN3CCNCC3)nnc2c1
98 | 190 | CC(=O)Nc1cc(C)cc(Br)n1
99 | > 260 | CCOC(=O)c1cnc2ccc(CC)cc2c1O
